Drawing on ChEMBL document CHEMBL1139717, “Solid-phase combinatorial approach for the optimization of soluble epoxide hydrolase inhibitors” (Bioorg Med Chem Lett, 2006), this text covers IC50 and inhibition for 15 compounds.

For assay [1], the target named is T1, Bifunctional epoxide hydrolase 2 (Homo sapiens, UniProt P34913).
T1 sequence (P34913 whole entry): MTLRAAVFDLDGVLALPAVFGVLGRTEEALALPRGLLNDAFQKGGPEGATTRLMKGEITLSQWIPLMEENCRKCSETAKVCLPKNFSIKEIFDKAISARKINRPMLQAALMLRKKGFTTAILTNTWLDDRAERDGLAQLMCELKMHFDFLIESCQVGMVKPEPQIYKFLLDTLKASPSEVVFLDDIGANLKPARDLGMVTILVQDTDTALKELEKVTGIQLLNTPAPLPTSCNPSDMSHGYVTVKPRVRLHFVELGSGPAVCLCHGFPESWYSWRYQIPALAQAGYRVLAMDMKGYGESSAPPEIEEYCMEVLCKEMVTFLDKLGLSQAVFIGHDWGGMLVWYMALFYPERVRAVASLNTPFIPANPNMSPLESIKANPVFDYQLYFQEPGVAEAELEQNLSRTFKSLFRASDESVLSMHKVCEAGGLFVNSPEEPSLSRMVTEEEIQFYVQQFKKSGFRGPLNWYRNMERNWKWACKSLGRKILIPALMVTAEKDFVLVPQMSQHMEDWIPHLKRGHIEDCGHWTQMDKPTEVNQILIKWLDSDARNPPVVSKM
As to the kind of experiment: Inhibition of human recombinant soluble epoxide hydrolase by kinetic fluorescent assay.

In assay [2] the target is T2, Bifunctional epoxide hydrolase 2 (Homo sapiens) (UniProt P34913).
T2 sequence (whole entry): T1 sequence (P34913 whole entry)
In words: Inhibition of human recombinant soluble epoxide hydrolase at 100 nM by end-point fluorescent assay.

Regarding `O=C(Nc1c(Cl)cccc1Cl)N[C@H]1CC[C@@H](Oc2ccc(F)cc2)CC1`, the IC50 in assay [1] is 940 nM. Moreover, the inhibition in assay [2] came to 1%.

`C[C@@H](NC(=O)NC12CC3CC(CC(C3)C1)C2)c1ccccc1`: the IC50 in assay [1] was determined as 100 nM. Moreover, the inhibition in assay [2] was found to be 10%.

Regarding `O=C(Nc1ccc(C(F)(F)F)cc1)N[C@H]1CC[C@@H](Oc2ccc(F)cc2)CC1`, the IC50 in assay [1] stood at 1.2 nM. For the same compound, the inhibition in assay [2] was 82%.

In the case of `Cc1cccc(C)c1NC(=O)N[C@H]1CC[C@@H](Oc2ccc(F)cc2)CC1`, the IC50 in assay [1] was 1200 nM. For the same compound, the inhibition in assay [2] was 4%.

For `O=C(Nc1ccc(Br)cc1)N[C@H]1CC[C@@H](Oc2ccc(F)cc2)CC1`, in assay [1], the IC50 is 0.6 nM. The inhibition in assay [2] was 80%.

With `O=C(Nc1cccc(C(=O)O)c1)N[C@H]1CC[C@@H](Oc2ccc(F)cc2)CC1`, in assay [1], the IC50 is 590 nM.

For `COC(=O)c1cccc(NC(=O)N[C@H]2CC[C@@H](Oc3ccc(F)cc3)CC2)c1`, the IC50 in assay [1] turned out to be 2 nM. Moreover, the inhibition in assay [2] came out at 72%.

Take `O=C(Nc1ccc(OC(F)(F)F)cc1)N[C@H]1CC[C@@H](Oc2ccc(F)cc2)CC1`: in assay [2], the inhibition came to 84%.

Turning to `O=C(Nc1ccc(I)cc1)N[C@H]1CC[C@@H](Oc2ccc(F)cc2)CC1`, the IC50 in assay [1] is 1 nM. Further, the inhibition in assay [2] came out at 76%.

`O=C(Nc1ccc(Cl)cc1)N[C@H]1CC[C@@H](Oc2ccc(F)cc2)CC1`: the IC50 in assay [1] is 0.7 nM. Also, in assay [2], the inhibition was determined as 81%.

For `CC(C)c1cccc(C(C)C)c1NC(=O)N[C@H]1CC[C@@H](Oc2ccc(F)cc2)CC1`, the IC50 in assay [1] was determined as 50500 nM. For the same compound, the inhibition in assay [2] stood at 5%.

With `O=C(Nc1ccccc1OC(F)(F)F)N[C@H]1CC[C@@H](Oc2ccc(F)cc2)CC1`, in assay [1], the IC50 was 100 nM. In assay [2], the inhibition was 2%.

Turning to `CN(C)c1cccc2c(S(=O)(=O)NCCNC(=O)NC34CC5CC(CC(C5)C3)C4)cccc12`, the IC50 in assay [1] was 30 nM. For the same compound, the inhibition in assay [2] came to 19%.

On to `O=C(NC1CCCCCC1)N[C@H]1CC[C@@H](Oc2ccc(F)cc2)CC1`, for which the IC50 in assay [1] was found to be 0.5 nM. Moreover, in assay [2], the inhibition was found to be 87%.

`COC(=O)c1ccc(NC(=O)N[C@H]2CC[C@@H](Oc3ccc(F)cc3)CC2)cc1`: in assay [1], the IC50 stood at 2.9 nM. Also, the inhibition in assay [2] was found to be 62%.
